Assays:
[1] = Ion flotation of uranium from Monument Valley groundwater with rhamnolipid collectors; details: pH 6.5
Source text: Groundwater Collection and Analysis: The Monument Valley site is in Cane Valley, AZ, which is in northeastern Arizona. Groundwater was collected from monitoring well 662, which is down gradient of the source zone within the boundaries of the uranium groundwater plume. Samples were collected using dedicated bladder pumps and a QED Micropurge Controller. Groundwater was collected into a 50 L LDPE carboy (Thermo Scientific Nalgene) after the groundwater's pH and dissolved oxygen levels from the pump stabilized. The solution was stored as received, on the lab bench at ambient temperature until use.
For cation and anion analysis, groundwater was filtered ([…]) then diluted with 2% trace metals grade nitric acid (Fisher Scientific, Waltham, MA) in metal-free polypropylene 15 mL centrifuge tubes (VWR, Radnor, PA). Cations were analyzed using an Elan DRC-II inductively coupled plasma mass spectrometer (ICP-MS). Anions (F^−1, Cl^−1, Br^−1, NO2^−1, NO3^−1, […], and SO4^−2) were analyzed by using a Thermo Scientific Dionex ICS-6000 high-performance ion chromatography system. Data generated in this geochemical analysis were used to model uranium speciation using Visual MINTEQ 3.1. Only major solution constituents—those greater than 10 μg L^−1 for metals or 5 μmol L^−1 for anions—were included in the experiment, and carbonates were excluded because they are stripped from solution when nitrogen is sparged in the flotation process.
Chemicals: Both biosynthetic and synthetic monorhamnolipid collectors were tested for flotation efficiency. Biosynthetic monorhamnolipid tail lengths ‘m’ and ‘n’ range from 4 to 12 due to natural congener variation. Synthetic monorhamnolipids (Rha-C10-C10, Rha-C12-C12, or Rha-C14-C14) were synthesized with equal length tails where ‘m’=‘n’=6-14. The production and purification of biosynthetic monorhamnolipids (bio-mRL) from Pseudomonas aeruginosa ATCC 9027 has been previously described by Hogan et al., J. Hazard. Mater. 2017, 340, pp. 171-178. This organism exclusively produces monorhamnolipids—rhamnolipids with a single rhamnose sugar in the hydrophilic moiety of the molecule—as a congener mixture with varying hydrophobic tail lengths, in which the rhamnosyl-β-hydroxydecanoyl-β-hydroxydecanoate (C10-C10) dominates at 75-85 wt %. A molecular weight of 504 g mol^−1 (based on the C10-C10 structure) was used to estimate the bio-mRL concentration. Synthetic monorhamnolipids with decyl (Rha-C10-C10), dodecyl (Rha-C12-C12), and tetradecyl (Rha-C14-C14) hydrophobic moieties were prepared for comparative experiment. The molecular weights of the synthetic monorhamnolipids are 504.7, 560.8, and 616.9, respectively. All solutions were made using nanopure water (≥18 MΩ-cm). pH was adjusted with HNO3 and NaOH. […]

[2] = Example 2.2 glycolipid facilitated chemical precipitation: lead
Protocol: Nine different structural variants were selected to examine the effect of the headgroup and number and length of the hydrophobic tail(s) on glycolipids as a chemical precipitant (Table 6). These solutions were made in advance and stored at 4° C. for up to one month and brought to room temperature (˜25° C.) before each experiment.
Each metal (Pb^2+, La^3+, and Mg^2+) was evaluated separately with each of the nine glycolipids. […] The reactions were mixed in the order of nanopure water (≥18 MΩ-cm), glycolipid solution, then metal solution. The metal and glycolipid solutions were continuously stirred as they were aliquoted into the reaction tubes. All experiments were performed in triplicate.
The reaction tubes were rotated overnight (16 to 24 h) and then three samples were collected from each tube to measure metal removal from solution: (1) no further treatment; (2) an additional filtration step; and (3) an additional centrifugation step. Briefly, for the glycolipid adsorption treatment samples all tubes were vortexed for approximately 5 sec immediately before sampling to ensure that non-adsorbed glycolipid-metal complexes were mixed into the solution column. After mixing, 0.1 ml of the reaction solution was aliquoted into a dilution tube of 2% trace metal grade nitric acid for analysis. This sample measures the loss of metal due to the formation of hydrophobic scums or adsorbed complexes not attributable to the subsequent filtration or centrifugation treatments.
Samples for the filtration treatment were vortexed for 5 sec, then a 0.6 ml aliquot was collected with a 1 ml syringe. A GHP acrodisc disk filter (hydrophilic polypropylene membrane, 0.45 µm pore size, 25 mm disc diameter) from Pall Life Sciences (Port Washington, New York) or PTFE disk filters (hydrophobic polytetrafluoroethylene membrane, 0.45 μm pore size, 25 mm disc diameter) from Fisher Scientific (Waltham, MA) was then placed onto the end of the syringe and approximately 0.1 ml of filtrate was collected into a dilution tube for analysis. The centrifuge sample was collected by centrifuging the remaining reaction solution at 10,000 RCF for 15 min. Approximately 0.1 ml of the supernatant was aliquoted into a dilution tube for analysis. Following collection, the metal content in all samples was analyzed at the Arizona Laboratory for Emerging Contaminants (ALEC) at the University of Arizona using inductively coupled plasma mass spectrometry.
R was determined by comparing the solution metal concentration of the treatment sample (Cnt for the glycolipid with no further treatment sample, Cf for the glycolipid and filtration sample, and Cc for the glycolipid and centrifugation sample) to the solution metal concentration of a glycolipid-free control (Ci) that underwent the same handling and processing steps. The equations for these calculations are shown below: […]

[3] = Example 2.1 rhamnolipid precipitation, filtration, centrifugation: lanthanum; details: for Treatment 2: Rhamnolipid and Filtration Cf / Treatment 3: Rhamnolipid and Centrifugation Cc / Treatment 1: Rhamnolipid Only Cr: lanthanum concentration after treatment; for Treatment 2: Rhamnolipid and Filtration (Rf) efficiency of removal / Treatment 3: Rhamnolipid and Centrifugation (Rc) efficiency of removal / Treatment 1: Rhamnolipid Only (Rr) efficiency of removal: lanthanum
Protocol: (§1) Structural variants of synthetic glycolipids were used to show the effect of the number and length of the hydrophobic tail(s) on rhamnolipid as a chemical precipitant. […] Solutions (10 mM) were made using nanopure water (≥18 MΩ-cm) then adjusted to a pH of 6.9±0.05 with HNO3 and NaOH. These solutions were made in advance and stored in the cold room for up to one month. They were brought to room temperature before each experiment.
(§2) Three metals were tested for binding with rhamnolipid. Lead as […] (Fisher Scientific, Waltham, MA, 99% purity), was chosen to represent a metal with high rhamnolipid-metal conditional stability constant; lanthanum as La(NO3)3 6(H2O) (Sigma-Aldrich, St. Louis, MO, 99.99% purity) was chosen as a representative REE; and magnesium as Mg(NO3)2 6(H2O) (Sigma-Aldrich, St. Louis, MO, 99% purity) was chosen to represent a metal with a low rhamnolipid-metal conditional stability constant (Hogan et al., 2017). Metal solutions (5 mM) were made using nanopure water (≥18 MΩ-cm) in 20 ml glass scintillation vials. All solutions were used within 15 min to ensure minimal adsorption to the glass vial.
(§3) Three glycolipid-based treatments were evaluated to remove metal from solution: (1) the addition of glycolipid with no further treatment (gravitational precipitation), (2) the addition of a glycolipid followed by filtration or (3) the addition of a glycolipid followed by centrifugation. Each metal (Pb, La, and Mg) was evaluated separately with each of the glycolipid structures. For each experiment, a metal solution was mixed with a glycolipid solution in a 1.7 ml reaction tube at varying molar ratios of glycolipid to metal: 0:1 (glycolipid-free control), 2:1, 5:1, and 10:1. The reactions were mixed in the order of nanopure water (≥18 MΩ-cm), glycolipid solution (10 mM), then metal solution (5 mM). The metal and glycolipid solutions were continuously stirred as they were aliquoted into the reaction tubes. The experiment was performed in triplicate.
(§4) The reaction tubes were mixed overnight (16 to 24 h) and then three samples were collected from each tube to measure the effect of each of the three treatments: a glycolipid only treatment sample, a filtration treatment sample, and a centrifugation treatment sample. Briefly, for the glycolipid only treatment samples all tubes were vortexed for approximately 5 sec immediately before removing 0.1 ml into a dilution tube of 2% trace metal grade nitric acid (12 to 14 ml) to minimize the settling of particles. For the filtration samples each reaction tube was vortexed for 5 sec and then a 0.6 ml aliquot was collected with a 1 ml syringe. A GHP acrodisc disk filter (hydrophilic polypropylene membrane, 0.45 μm pore size, 25 mm disc diameter) from Pall Life Sciences (Port Washington, New York) was then placed onto the end of the syringe and the solution was pushed through the filter. The void space in the disk filter holds approximately 0.5 ml, therefore around 0.1 ml of filtrate was collected into a dilution tube. For the centrifugation sample, the remaining solution was centrifuged at 10,000 RCF for 15 min. Approximately 0.1 ml of the supernatant was aliquoted into a dilution tube. Following collection, all samples were taken for metal analysis using ICP-MS.

[4] = Example 2.1 rhamnolipid precipitation, filtration, centrifugation: magnesium; details: for Treatment 2: Rhamnolipid and Filtration Cf / Treatment 3: Rhamnolipid and Centrifugation Cc / Treatment 1: Rhamnolipid Only Cr: magnesium concentration after treatment; for Treatment 1: Rhamnolipid Only (Rr) efficiency of removal / Treatment 2: Rhamnolipid and Filtration (Rf) efficiency of removal / Treatment 3: Rhamnolipid and Centrifugation (Rc) efficiency of removal: magnesium
Protocol: as §1, §2, §3, §4

[5] = Example 2.1 rhamnolipid precipitation, filtration, centrifugation: lead; details: for Treatment 3: Rhamnolipid and Centrifugation Cc / Treatment 1: Rhamnolipid Only Cr / Treatment 2: Rhamnolipid and Filtration Cf: lead concentration after treatment; for Treatment 1: Rhamnolipid Only (Rr) efficiency of removal / Treatment 2: Rhamnolipid and Filtration (Rf) efficiency of removal / Treatment 3: Rhamnolipid and Centrifugation (Rc) efficiency of removal: lead
Protocol: as §1, §2, §3, §4

## CCCCCCCC(CC(=O)O)OC(=O)CC(CCCCCCC)O[C@@H]1OC(C)[C@H](O)C(O)C1O[C@@H]1OC(C)[C@H](O)C(O)C1O (stereo partly drawn) [dirhamnolipid]
[1]
  uranium removal percentage: about 75%

## CCCCCCCC(CC(=O)O)OC1O[C@H](CO)[C@H](O)[C@H](O)[C@H]1O (stereo partly drawn) [Gal-C10]
[2]; precipitation followed by filtration, 2:1 molar ratio
  Pb^2+ removal: 95.5%
[2]; precipitation without further treatment, maximum over molar ratios
  Pb^2+ maximum removal: 38%

## CCCCCCCC(CC(=O)O)OC1O[C@@H](C)[C@H](O)[C@@H](O)[C@H]1O (stereo partly drawn) [Rha C10]
[3]; molar ratio 2 to 1
  Treatment 2: Rhamnolipid and Filtration Cf: 0.096 ± 0.025 mmol/L
  Treatment 3: Rhamnolipid and Centrifugation Cc: 0.228 ± 0.013 mmol/L
  Treatment 2: Rhamnolipid and Filtration (Rf) efficiency of removal: (65.7%)
  Treatment 3: Rhamnolipid and Centrifugation (Rc) efficiency of removal: (18.6%)
[3]; molar ratio 5 to 1
  Treatment 1: Rhamnolipid Only Cr: 0.246 ± 0.016 mmol/L
  Treatment 2: Rhamnolipid and Filtration Cf: 0.015 ± 0.010 mmol/L
  Treatment 3: Rhamnolipid and Centrifugation Cc: 0.088 ± 0.003 mmol/L
  Treatment 1: Rhamnolipid Only (Rr) efficiency of removal: (12.3%)
  Treatment 2: Rhamnolipid and Filtration (Rf) efficiency of removal: (94.6%)
  Treatment 3: Rhamnolipid and Centrifugation (Rc) efficiency of removal: (68.7%)
[3]; molar ratio 10 to 1
  Treatment 1: Rhamnolipid Only Cr: 0.190 ± 0.004 mmol/L
  Treatment 2: Rhamnolipid and Filtration Cf: 0.022 ± 0.028 mmol/L
  Treatment 3: Rhamnolipid and Centrifugation Cc: 0.051 ± 0.010 mmol/L
  Treatment 1: Rhamnolipid Only (Rr) efficiency of removal: (32.2%)
  Treatment 2: Rhamnolipid and Filtration (Rf) efficiency of removal: (92.1%)
  Treatment 3: Rhamnolipid and Centrifugation (Rc) efficiency of removal: (81.7%)
[3]; molar ratio rhamnolipid:lanthanum 2 to 1
  Treatment 1: Rhamnolipid Only Cr: 0.282 ± 0.009 mmol/L
[4]; molar ratio 2 to 1
  Treatment 2: Rhamnolipid and Filtration Cf: 0.328 ± 0.036 mmol/L
  Treatment 3: Rhamnolipid and Centrifugation Cc: 0.497 ± 0.014 mmol/L
  Treatment 1: Rhamnolipid Only (Rr) efficiency of removal: (3.1%)
  Treatment 2: Rhamnolipid and Filtration (Rf) efficiency of removal: (34.6%)
  Treatment 3: Rhamnolipid and Centrifugation (Rc) efficiency of removal: (0.8%)
[4]; molar ratio 5 to 1
  Treatment 1: Rhamnolipid Only Cr: 0.492 ± 0.007 mmol/L
  Treatment 2: Rhamnolipid and Filtration Cf: 0.283 ± 0.059 mmol/L
  Treatment 3: Rhamnolipid and Centrifugation Cc: 0.500 ± 0.008 mmol/L
  Treatment 1: Rhamnolipid Only (Rr) efficiency of removal: (1.8%)
  Treatment 2: Rhamnolipid and Filtration (Rf) efficiency of removal: (43.6%)
  Treatment 3: Rhamnolipid and Centrifugation (Rc) efficiency of removal: (0.2%)
[4]; molar ratio 10 to 1
  Treatment 1: Rhamnolipid Only Cr: 0.503 ± 0.004 mmol/L
  Treatment 2: Rhamnolipid and Filtration Cf: 0.317 ± 0.073 mmol/L
  Treatment 3: Rhamnolipid and Centrifugation Cc: 0.490 ± 0.004 mmol/L
  Treatment 2: Rhamnolipid and Filtration (Rf) efficiency of removal: (36.7%)
  Treatment 3: Rhamnolipid and Centrifugation (Rc) efficiency of removal: (2.2%)
[4]; molar ratio rhamnolipid:magnesium 2 to 1
  Treatment 1: Rhamnolipid Only Cr: 0.486 ± 0.021 mmol/L
[5]; molar ratio 2 to 1
  Treatment 3: Rhamnolipid and Centrifugation Cc: 0.320 ± 0.045 mmol/L
  Treatment 1: Rhamnolipid Only (Rr) efficiency of removal: (2.7%)
  Treatment 2: Rhamnolipid and Filtration (Rf) efficiency of removal: (88.8%)
  Treatment 3: Rhamnolipid and Centrifugation (Rc) efficiency of removal: (2.5%)
[5]; molar ratio 5 to 1
  Treatment 1: Rhamnolipid Only Cr: 0.293 ± 0.006 mmol/L
  Treatment 2: Rhamnolipid and Filtration Cf: 0.028 ± 0.031 mmol/L
  Treatment 3: Rhamnolipid and Centrifugation Cc: 0.288 ± 0.002 mmol/L
  Treatment 1: Rhamnolipid Only (Rr) efficiency of removal: (10.7%)
  Treatment 2: Rhamnolipid and Filtration (Rf) efficiency of removal: (91.6%)
  Treatment 3: Rhamnolipid and Centrifugation (Rc) efficiency of removal: (12.2%)
[5]; molar ratio 10 to 1
  Treatment 1: Rhamnolipid Only Cr: 0.232 ± 0.009 mmol/L
  Treatment 2: Rhamnolipid and Filtration Cf: 0.001 ± 0.000 mmol/L
  Treatment 3: Rhamnolipid and Centrifugation Cc: 0.231 ± 0.003 mmol/L
  Treatment 1: Rhamnolipid Only (Rr) efficiency of removal: (29.3%)
  Treatment 2: Rhamnolipid and Filtration (Rf) efficiency of removal: (99.8%)
  Treatment 3: Rhamnolipid and Centrifugation (Rc) efficiency of removal: (29.7%)
[5]; molar ratio rhamnolipid:lead 2 to 1
  Treatment 1: Rhamnolipid Only Cr: 0.320 ± 0.012 mmol/L

Reference: US20240182513A1, “SEPARATION OF METAL IONS FROM A SAMPLE USING GLYCOLIPIDS” (ARIZONA BOARD OF REGENTS ON BEHALF OF THE UNIVERSITY OF …, priority 2021, published 2024)
